From patent US5225437A, “1,2,4-trioxane compounds having antimalarial activity” (The Johns Hopkins University, priority 1992, dated 1993)
“Also recorded” adds a separate entry of the source. Read-outs that look alike come from different tables or passages of the source.

Columns and labels:
W-2 Indochine Clone = conditions: cited from earlier work; for IC50: Table V, read-out: Fifty Percent Inhibitory Concentrations, W-2 Indochine Clone; for Artemisinin Indices, W-2 Indochine Clone: intrinsic equimolar activity relative to the simultaneous artemisinin control
D-6 Sierra Leone Clone = conditions: cited from earlier work; for IC50: Table V, read-out: Fifty Percent Inhibitory Concentrations, D-6 Sierra Leone Clone; for Artemisinin Indices, D-6 Sierra Leone Clone: intrinsic equimolar activity relative to the simultaneous artemisinin control
[1] = test system: P. falciparum malaria parasite clone Sierra Leone (D-6); experiment: in vitro susceptibility testing, uptake of tritiated hypoxanthine as index of inhibition of parasite growth, Sierra Leone (D-6) clone; conditions: Plasmodium falciparum; for IC50: read-out: D6 IC50
[2] = test system: P. falciparum malaria parasite clone Indochina (W-2); experiment: in vitro susceptibility testing, uptake of tritiated hypoxanthine as index of inhibition of parasite growth, Indochina (W-2) clone; format: cell-based; conditions: Plasmodium falciparum; for IC50: read-out: W2 IC50
[3] = test system: P. falciparum D-6 African Clone; experiment: anti-malarial in vitro testing against P. falciparum clones, D-6 African clone; format: cell-based; conditions: Table VI, D-6 value over W-2 value
[4] = test system: P. falciparum malaria parasite clones; experiment: anti-malarial activity in words (overall, both P. falciparum clones)
[5] = compared with known anti-malarial drugs
[6] = Table III, INDOCHINA CLONE (W-2), read-out: IC90
[7] = Table IV, W2, read-out: W2 IC90

Compound | IC50 (W-2 Indochine Clone) [nM] | Artemisinin Indices, W-2 Indochine Clone (W-2 Indochine Clone) | IC50 (D-6 Sierra Leone Clone) [nM] | Artemisinin Indices, D-6 Sierra Leone Clone (D-6 Sierra Leone Clone) | IC50 [1] [nM] | IC50 ([2]; Table IV, W2) [nM] | IC90 [1] [nM] | other results
CCO[C@@H]1O[C@@H]2O[C@@]3(C)CC[C@H]4[C@H](C)CC[C@@H]([C@H]1C)[C@@]24OO3 [Arteether (alpha)] | 3.07 | 2.08 | 4.18 | 2.52 |  |  |  | 
CCO[C@H]1O[C@@H]2O[C@@]3(C)CC[C@H]4[C@H](C)CC[C@@H]([C@H]1C)[C@@]24OO3 [Arteether (beta)] | 2.97 | 2.18 | 4.07 | 2.58 |  |  |  | 
C[C@H]1[C@@H](OCc2ccc(C(=O)O)cc2)O[C@@H]2O[C@@]3(C)CC[C@H]4[C@H](C)CC[C@@H]1[C@@]24OO3 [Artelinic Acid] | 3.3 | 1.94 | 9.73 | 1.08 |  |  |  | 
CO[C@H]1O[C@@H]2O[C@@]3(C)CC[C@H]4[C@H](C)CC[C@@H]([C@H]1C)[C@@]24OO3 [Artemether] | 3.34 | 1.92 | 4.49 | 2.34 |  |  |  | 
C[C@@H]1CC[C@H]2[C@@H](C)C(=O)O[C@@H]3O[C@@]4(C)CC[C@@H]1[C@]32OO4 [Artemisinin, artemisinin] | 6.41 | 1.00 | 10.5 | 1.00 | 0.69 | 0.68 |  | Ratio of D-6/W-2 [3]: 2.4
CCN(CC)CCCC(C)Nc1ccnc2cc(Cl)ccc12 (stereo not shown) [Chloroquine] | 100 | 0.06 | 10.8 | 0.97 | 1.21 |  |  | IC50 [2]: 61.7 nM; Ratio of D-6/W-2 [3]: 0.1
COC(=O)c1ccc(C(=O)OCCC2CCCC3CCC4(C)OOC23C(OC)O4)cc1 (stereo not shown) [Compound 19] |  |  |  |  |  |  |  | anti-malarial activity / potency in words [4, 5]: substantial improvement over artemisinin; also recorded: comparable in potency to arteether; also recorded: comparable in potency to artemether; also recorded: considerably higher potency than the clinically used Chinese drug, artemisinin
COC1OC2(C)CCC3CCCC(CCOC(=O)c4ccc(C(=O)OCCN(C)C)cc4)C31OO2 (stereo not shown) [Compound 20] |  |  |  |  |  |  | 20.4 | IC90 [2, 6]: 24.7 nM
CCN(CC)C(=O)c1ccc(C(=O)OCCC2CCCC3CCC4(C)OOC23C(OC)O4)cc1 (stereo not shown) [Compound 21] |  |  |  |  |  |  |  | anti-malarial activity / potency in words [4, 5]: substantial improvement over artemisinin; also recorded: comparable in potency to arteether; also recorded: comparable in potency to artemether; also recorded: considerably higher potency than the clinically used Chinese drug, artemisinin
COC1OC2(C)CCC3CCCC(CCOC(=O)c4ccc(C(=O)OCCC5CCCC6CCC7(C)OOC56C(OC)O7)cc4)C31OO2 (stereo not shown) [Compound 22] |  |  |  |  |  |  | 857 | 
COC1OC2(C)CCC3CCCC(CCOS(=O)(=O)c4ccc(C)cc4)C31OO2 (stereo not shown) [Compound 23] |  |  |  |  |  |  | 19 | IC90 [2, 6]: 10.2 nM
COC(=O)c1ccccc1S(=O)(=O)OCCC1CCCC2CCC3(C)OOC12C(OC)O3 (stereo not shown) [Compound 24] |  |  |  |  |  |  | 58.8 | IC90 [2, 6]: 19.7 nM
COC1OC2(C)CCC3CCCC(CCOC(=O)CNC(=O)OC(C)(C)C)C31OO2 (stereo not shown) [Compound 25] |  |  |  |  |  |  | 4.43 | anti-malarial activity / potency in words [4, 5]: substantial improvement over artemisinin
COC1OC2(C)CCC3CCCC(CCOC(=O)N(C)C)C31OO2 (stereo not shown) [Compound 26] |  |  |  |  |  |  | 3.93 | IC90 [2, 6]: 1.29 nM; anti-malarial activity / potency in words [4, 5]: particularly potent
COC1OC2(C)CCC3CCCC(CCOS(=O)(=O)N(C)C)C31OO2 (stereo not shown) [Compound 27] |  |  |  |  |  |  | 30.2 | IC90 [2, 6]: 23 nM
CCOP(=O)(OCC)OCCC1CCCC2CCC3(C)OOC12C(OC)O3 (stereo not shown) [Compound 28] |  |  |  |  |  |  | 0.99 | anti-malarial activity / potency in words [4]: substantial improvement over artemisinin; also recorded: comparable in potency to arteether; also recorded: higher potency than artemisinin; also recorded: particularly potent

Compound | IC50 (W-2 Indochine Clone) [nM] | Artemisinin Indices, W-2 Indochine Clone (W-2 Indochine Clone) | IC50 (D-6 Sierra Leone Clone) [nM] | Artemisinin Indices, D-6 Sierra Leone Clone (D-6 Sierra Leone Clone) | IC50 [1] [nM] | IC50 ([2]; Table IV, W2) [nM] | IC90 [1] [nM] | other results
COC1OC2(C)CCC3CCCC(CCOC(=O)N(c4ccccc4)c4ccccc4)C31OO2 (stereo not shown) [Compound 31] |  |  |  |  | 0.27 | < 0.16 |  | IC90 ([1]; read-out: D6 IC90): 2.25 nM; IC90 [2, 7]: < 0.18 nM; anti-malarial activity / potency in words [4, 5]: substantial improvement over artemisinin; also recorded: comparable in potency to arteether; also recorded: higher potency than artemisinin; also recorded: particularly potent
COC1OC2(C)CCC3CCCC(CCOS(=O)(=O)c4cccc5c(N(C)C)cccc45)C31OO2 (stereo not shown) [Compound 32] |  |  |  |  | 5.16 | 1.04 |  | IC90 ([1]; read-out: D6 IC90): 10 nM; IC90 [2, 7]: 7.17 nM
CCN(CC)C(=O)OCCC1CCCC2CCC3(C)OOC12C(OC)O3 (stereo not shown) [Compound 34] |  |  |  |  | 0.39 | < 0.28 |  | IC90 ([1]; read-out: D6 IC90): 1.18 nM; IC90 [2, 7]: < 0.28 nM; anti-malarial activity / potency in words [4, 5]: comparable in potency to arteether; also recorded: higher potency than artemisinin; also recorded: particularly potent
COC1OC2(C)CCC3CCCC(CCOC(=O)c4ccc(C(=O)O)cc4)C31OO2 (stereo not shown) [Compound 36] |  |  |  |  | 256 | 24.2 | 115 | IC90 ([1]; read-out: D6 IC90): 516 nM; IC90 [2, 6]: 46.1 nM; IC90 [2, 7]: 979 nM
COCCC1CCCC2CCC3(C)OOC12C(OC)O3 (stereo not shown) [Compound 101] |  |  |  |  |  |  | 13.7 | IC90 [2, 6]: 4.62 nM
COC1OC2(C)CCC3CCCC(CCOCc4ccccc4)C31OO2 (stereo not shown) [Compound 102] |  |  |  |  | 1.22 | 0.25 |  | IC90 ([1]; read-out: D6 IC90): 3.27 nM; IC90 [2, 7]: 1.53 nM; anti-malarial activity / potency in words [4, 5]: particularly potent anti-malarial activity
CCOP(=O)(COCCC1CCCC2CCC3(C)OOC12C(OC)O3)OCC (stereo not shown) [Compound 103] |  |  |  |  | 3.03 |  |  | IC90 ([1]; read-out: D6 IC90): 29.9 nM; IC50 [2]: 0.96 nM; IC90 ([2]; read-out: W2 IC90): 8.2 nM
C=CCOCCC1CCCC2CCC3(C)OOC12C(OC)O3 (stereo not shown) [Compound 104] |  |  |  |  | 1.08 | 0.32 |  | IC90 ([1]; read-out: D6 IC90): 15.7 nM; IC90 [2, 7]: 2.37 nM; anti-malarial activity / potency in words [4, 5]: particularly potent anti-malarial activity
COC1OC2(C)CCC3CCCC(CCOCc4c(C)noc4C)C31OO2 (stereo not shown) [Compound 105] |  |  |  |  | 1.82 | 0.34 |  | IC90 ([1]; read-out: D6 IC90): 19.1 nM; IC90 [2, 7]: 1.64 nM; anti-malarial activity / potency in words [4, 5]: particularly potent anti-malarial activity
COC1OC2(C)CCC3CCCC(CCI)C31OO2 (stereo not shown) [Compound 301] |  |  |  |  | 1.14 | < 0.32 |  | IC90 ([1]; read-out: D6 IC90): 6.33 nM; IC90 [2, 7]: < 0.32 nM
C[C@H]1[C@@H](O)O[C@@H]2O[C@@]3(C)CC[C@H]4[C@H](C)CC[C@@H]1[C@@]24OO3 [Dihydroartemisinin] | 1.79 | 3.58 | 1.83 | 5.75 |  |  |  | 
CCCCN(CCCC)CCC(O)c1cc2c(Cl)cc(Cl)cc2c2cc(C(F)(F)F)ccc12 (stereo not shown) [Halofantrine] | 0.76 | 8.43 | 7.8 | 1.35 |  |  |  | 
OC(c1cc(C(F)(F)F)nc2c(C(F)(F)F)cccc12)C1CCCCN1 (stereo not shown) [Mefloquine] | 5.75 | 1.11 | 33.4 | 0.31 | 3.53 | 0.11 |  | 
CCc1nc(N)nc(N)c1-c1ccc(Cl)cc1 [Pyrimethamine] | 176 | 0.03 | 0.4 | 26.11 | 1.08 | > 250 |  | 
C=C[C@H]1C[N@@]2CC[C@H]1C[C@H]2[C@H](O)c1ccnc2ccc(OC)cc12 [Quinine] |  |  |  | 0.09 |  |  |  | 
COc1ncnc(NS(=O)(=O)c2ccc(N)cc2)c1OC [Sulfadoxine] | 80600 | < 0.01 | 89.4 | 0.11 |  |  |  | 
